The text below walks through data of US20060115865A1, “Lamotrigine analogs” (priority 2004, published 2006).

Data set [1] in a line: Solubility of 74W86 in common solvents. Type of data set: physicochemical. Conditions: most common solvents.
Data set [2] deals with anti-lamotrigine antibody. Nature of the data set: Cross-reactivity of polyclonal antibody with lamotrigine metabolites spiked into human serum. As to conditions: metabolite at 500 μg/mL spiked into human serum; polyclonal antisera. Type of data set: binding. The method, then:
A polyclonal antisera is obtained and an assay is performed in order to determine the amount of cross-reactivity of the polyclonal antibody with lamotrigine and lamotrigine metabolites. A known amount of lamotrigine is used to react with an anti-lamotrigine antibody prepared in accordance with the present invention. The known concentration of lamotrigine is used to calculate the amount of cross-reactivity between the antibody preparation and the metabolites as follows: N-methyl (29); N-oxide (30); and N-2 gluronide (31). The percent of cross-reactivity equals 100 times the observed concentration of lamotrigine in μg/mL, which is then divided by the concentration of added metabolites in μg/mL. No cross-reactivity is observed in specimens containing those metabolites. High concentrations of these compounds are spiked into human serum and tested as samples. The metabolites are assayed and compared to control serum (no lamotrigine). Cross reactivity is calculated using the following equation: [formula]

The conditions of data set [3]: cited from earlier work.
The mark [4] stands for this setting: responders (>50% seizure reduction).

Each structure is given as a SMILES string. Like-named read-outs stand apart in the source and are kept apart here.

In the case of `Nc1nnc(-c2cccc(Cl)c2Cl)c(NC(=O)CCC(=O)O)n1` [74W86], the solubility entry in data set [1] is “poor solubility in most common solvents”.
Take `C[n+]1nc(-c2cccc(Cl)c2Cl)c(N)nc1N` [N-2 methyl]: the cross-reactivity entry in data set [2] is reported as “do not have any cross-reactivity”.
As to `Nc1nc(N)[n+]([O-])nc1-c1cccc(Cl)c1Cl` [N-2 oxide], the cross-reactivity in data set [2] was < 3%.
As for `Nc1nnc(-c2cccc(Cl)c2Cl)c(N)n1` [lamotrigine, 3,5-diamino-6-(2,3-dichlorophenyl)-1,2,4-triazine], in data set [3] (patients with side effects), the “lamotrigine concentration, range” value was 31 to 60 µmol/L and the median lamotrigine concentration was 62 µmol/L. Besides, in data set [3] (setting [4]), the “lamotrigine concentration, range” value was 8 to 60 µmol/L and the median lamotrigine concentration was 31 µmol/L.
